Like-named read-outs stand apart in the source and are kept apart here.
B1: Brazzein(A28D): wild-type TypeIII Brazzein; residue 50 of pelB-Brazzein mutated from Alanine to Aspartate; mature protein from Seq Id No. 8 (protein)
chain: MKYLLPTAAAGLLLLAAQPAMADKCKKVYENYPVSKCQLANQCNYDCKLDKHARSGECFYDEKRNLQCICDYCEY
modifications: misc_feature 1..234 Synthetic: nucleotide Sequence encoding pelB conjugated to Brazzein(A28D)

Columns and labels:
taste panel = assay: Sensory analysis of purified Brazzein (taste panel, sweetness threshold versus sucrose); assay type: in vivo, humans; conditions: for Experimental Threshold: first sample sensed as sweet, 200 microliter applied to anterior tongue, 30 tasters; for Relative Sweetness (by weight): relative to sucrose, 1% (w/v) sucrose reference
Method: A portion of the purified Brazzein (A28D) was lyophilized and re-dissolved in deionized water to 1.0 mg/mL. From this, Brazzein (A28D) solutions with following concentrations were made: 0.5, 1.0, 2.0, 3.0, 4.0, 5.0, 6.0, 7.0, 8.0, 9.0, and 10.0 μg/mL. A 1% (w/v) sucrose solution, the lowest concentration of sucrose detectable by humans, was used as a reference. The taste panel consisted of fifteen females and fifteen males with normal health and normal sense of taste. Two-hundred-microliter samples were applied to the anterior region of the tongue. After each test, the mouth was rinsed with tap water. The tasters sampled from the lower concentration samples to higher. Each taster chose the first sample that could be sensed for sweetness. Sweetness potencies were reported relative to sucrose on a weight basis.

[1] = Thermal stability of secreted Brazzein (heating of cell free supernatant, SDS-PAGE); assay type: physicochemical; conditions: cell free supernatant heated at 80° C. for 60 mins, centrifuged at 17,500 g, FIG. 11
Method: Protein expression was analyzed by SDS-PAGE on 15% Tris-Glycine gels. To analyze protein in the cell culture medium, 17 μL of cell free supernatant (corresponding to 0.07% of total culture volume) was mixed with 17 μL of 2× reducing sample buffer, heated for 5 mins in a PCR machine, briefly spun and loaded into the gel. The gel was run at a constant voltage of 125V till the dye front exited the gel. The gels were washed in MILLI-Q® water for 1 hour and stained with Coomassie Stain. To analyze protein in whole cells, frozen cell pellets were thawed, re-suspended in 50 μL of MILLI-Q*water. 17 μL of resuspended cells were mixed with 17 μL of 2× Reducing Sample Buffer, heated for 5 mins in a PCR machine, briefly spun and loaded into the gel. The gel was run at constant voltage of 125V till the dye front exited it. The gels were washed in MILLI-Q*water for 1 hour and stained with Coomassie Stain.
[…] The supernatant was analyzed by SDS-PAGE. Protein quantitation was done using BCA assay kit. As a result of heating, most of the endogenous E. coli proteins present in the cell free supernatant precipitated, leaving >90% pure Brazzein in solution.

[2] = cited from earlier work

| Molecule | Experimental Threshold (taste panel) | Relative Sweetness (by weight) (taste panel) | thermal stability: Brazzein in soluble supernatant after heating [1] | sweeter than sucrose ([2]; in comparison to 2% sucrose aqueous solution) | sweeter than sucrose ([2]; in comparison to 10% sucrose) | sweeter than sucrose on a weight basis (taste panel; relative to 1% (w/v) sucrose reference) |
| --- | --- | --- | --- | --- | --- | --- |
| OC[C@H]1O[C@@](CO)(O[C@H]2O[C@H](CO)[C@@H](O)[C@H](O)[C@H]2O)[C@@H](O)[C@@H]1O [Sucrose, reference compound] | 1 % [g/100 mL] | 1 |  |  |  |  |
| Brazzein: high-potency thermostable sweet protein, originally isolated from the fruit of Pentadiplandra brazzeana Baillon (DKCKKVYENYPVSKCQLANQCNYDCKLDKHARSGECFYDEKRNLQCICDYCEY; Synthetic: Amino Acid Sequence of pelB-Brazzein(A28D)) |  |  | Presence of Brazzein in lanes 1 and 2 | 2,500 times | 500 times |  |
| B1 | 0.0006 % [g/100 mL] | 1660 |  |  |  | 1660 times |

Source: US12606836B2, “Process for extracellular secretion of Brazzein” (MAGELLAN LIFE SCIENCES LTD., priority 2016, dated 2026)
